Like-named read-outs stand apart in the source and are kept apart here.
Columns and labels:
[1] = tested on: hepatic mitochondrial fluxes (VPC, VCS); assay: PINTA / ex vivo NMR tracer study in rats infused with [3-^13C]lactate and [3-^3H]glucose (Example 1); conditions: for VPDH/VCS (%) / VPK+ME/VPC+PDH (%): rat liver; for VPDH/VCS (%) / VPK+ME/VPC+PDH (%) / VPC/VEGP (%): 120 min [3-^13C]lactate infusion, mean ± S.E.M.; for VPC/VEGP (%): rats
Text: Male Sprague-Dawley rats (˜10 weeks of age) were ordered from Charles River (Wilmington, Mass.) at ˜300 g and fed regular chow unless otherwise specified. […] Prior to studies, rats underwent surgery under general isoflurane anesthesia to place polyethylene catheters in the jugular vein and common carotid artery (PE90 and PE50 tubing, respectively; Instech, Plymouth Meeting, Pa.). After 1 week, recovery was verified by confirming that the rats had regained their surgical weight. Unless otherwise specified, all experiments were performed following an overnight fast (16 hrs food withdrawal prior to sacrifice). In both the rodent and human studies, data are represented as the mean of two technical replicates for each subject (i.e. two technical replicates per biological replicate). Sample sizes were selected to give power to detect moderate to large differences between groups (n=5-6 per group), and all animals were included in the final analysis.
The investigator performing the animal studies was not blinded for practical reasons, but the investigators analyzing fluxes were blinded as to the group allocation.
The flux calculations required the following equations using [^13C] glucose positional enrichment in plasma or liver, determined by NMR and GC/MS mass spectrometry. VPC is the rate of pyruvate carboxylase flux as determined from the anaplerotic flow into oxaloacetate (OAA). VCS is defined as the flux of the citrate synthase reaction in the citric acid cycle. […] G2 denotes [m+2] glucose arising from the condensation of two singly-labeled trioses.
GC/MS was used to measure m+1 and m+2 [^13C]glucose enrichment. The total m+1 and m+2 [^13C]glucose enrichment was measured using a pentaacetate derivative: plasma or liver samples were deproteinized using 5 volumes of methanol, dried, and derivatized with 75 μL of 1:1 acetic anhydride:pyridine. After heating to 65° C. for 20 min, the reaction was terminated by adding 25 μL methanol, and m+1 and m+2 (as well as m+3 . . . m+6) were determined by GC/MS (CI mode, m/z 331 [m], 332 [m+1], 333 [m+2], . . . 337 [m+6]). The m+1 and m+2 [^13C] enrichments of the glucose C4C5C6 fragment were determined by generating the aldonitrile pentapropionate derivative: plasma or NMR liver extract samples were dried under N2 gas, and 50 μl hydroxylamine hydrochloride (20 mg/ml in pyridine) were added. The samples were heated at 90° C. for 60 min, then 100 μl propionic anhydride was added, after which the samples were heated at 60° C. for 30 min. Finally, the samples were evaporated under N2 gas, resuspended in ethyl acetate, and the m+1 and m+2 enrichment of the glucose C4C5C6 fragment was measured by GC/MS.
[^13C]alanine enrichment was measured by GC/MS. [^13C] NMR spectroscopy using the BRUKER TOPSPIN® system was utilized to measure relative positional 13C-enrichment of glucose, and combined with the total [^13C]glucose enrichment ([m+1]+2*[m+2]) measured by GC/MS to calculate the positional enrichment of [13C]glucose.
Total [^13C]glutamate enrichment was determined by LC-MS/MS. Approximately 100 mg of liver tissue was weighed out and homogenized in 500 μl ice-cold methanol using a TissueLyser, then centrifuged at 4000 rpm for 10 minutes. The supernatant was then purified by centrifugation (4000 rpm, 10 min) through the PALL NANOSEP® filter (100K) (Port Washington, N.Y.). Glutamate 13C enrichment ([m+1], [m+2]) was then assessed by LC-MS/MS using an AB SCIEX QTRAP 6500 (Framingham, Mass.), equipped with a SHIMADZU ultra-fast liquid chromatography (UFLC) system (Columbia, Md.) and electrospray ionization (ESI) source with negative-ion detection. The measured ion pairs were 146/128 (m0), 147/129 (m+1), and 148/130 (m+2).
Positional enrichment of glucose, glutamate, and alanine was measured by 13C NMR.

[2] = tested on: primary mouse hepatocytes; assay: In vitro glucose production, VPC and lipolysis in isolated hepatocytes; format: cell-based; conditions: isolated hepatocytes, 1 mM hydroxymalonate
Description: For in vitro glucose production and lipolysis studies, primary mouse hepatocytes were isolated by the Yale Liver Center. Following removal of cell debris by Percoll density gradient centrifugation, cells were plated on 6-well collagen-I coated dishes (4.0×10^5 cells/well) in 2 ml recovery media (DMEM High Glucose containing 10% FBS, 2% penicillin-streptomycin, 100 nM dexamethasone, 1 nM insulin, and 10 mM HEPES). After incubation for 6 hr at 37° C. and 5% CO2, the attached cells were washed once in 1×PBS and then incubated overnight in 2 ml Low Glucose Culture Media (DMEM Low Glucose supplemented with 10% FBS, 2% penicillin-streptomycin and 10 mM HEPES for glucose production studies) or Serum Free Low Glucose Culture Media (DMEM Low Glucose supplemented with 0.5% fatty acid free BSA, 2% penicillin-streptomycin and 10 mM HEPES for lipolysis assays). […] After incubation for 8 hr at 37° C. and 5% CO2, cell culture media was collected for analysis of glucose, NEFA, and glycerol concentrations as described above. VPC was determined by measuring VPC/VEGP by PINTA as described above using 300 μL of the collected media, and multiplying this ratio by the measured glucose production rate. In a subset of studies, cells were incubated for 8 hr during the glucose production assay in media containing one of the following agents (all dissolved in 0.5% DMSO), or 0.5% DMSO vehicle: 20 μM ET-18-OCH3 (Santa Cruz), 100 μM U-73122 (Sigma), 30 nM thapsigargin (Sigma), 100 nM vasopressin (Sigma) 50 μM 2-APB (R&D Systems), 70 μM caffeine (Sigma), 1 mM malic enzyme inhibitor hydroxymalonate (Sigma). To inhibit PKA, hepatocytes were incubated in H-89 […] hydrate (Sigma, 25 μM) dissolved in media, or media lacking H-89 as a control. In the insulin treatment studies, hepatocytes were incubated in 1 nM insulin with 5% BSA and glucose production media for the duration of the glucose production assay. In the in vitro atglistatin study, hepatocytes were incubated in 10 μM atglistatin in 0.1% EtOH, or 0.1% EtOH vehicle. All values were normalized to total protein content determined from whole-cell lysates by a BCA protein assay (Thermo Fisher Scientific) according to the manufacturer's instructions and expressed as fold change verses vehicle-treated cells.

[3] = tested on: HPA axis, WAT lipolysis, and hepatic gluconeogenesis; format: in vivo, rat
Description: Blood samples were taken at 14, 16, and 18 hr of the fast for measurement of substrate/hormone concentrations and turnover of each tracer, as described below. […] Liver and muscle glycogen concentrations were assessed using amyloglucosidase digestion. Liver TAG content was measured using the method of Bligh and Dyer (Bligh and Dyer, Can. J. Biochem. Physiol. 37, 911-917, 1959): lipids were extracted from livers using 2:1 chloroform:methanol, and the Sekisui triglyceride-SL reagent was used to measure triglyceride content spectrophotometrically. Liver and muscle DAG content and liver acetyl- and malonyl-CoA concentrations were measured by LC-MS/MS as described by Yu and Perry (Yu, et al. J. Biol. Chem. 2002, 277, 50230-50236; Perry, et al., J. Clin. Invest. 2017, 127, 657-669). […] The samples were homogenized in […] ice-cold methanol using a TissueLyser and filtered through a Nanosep filter. LC-MS/MS (AbSCIEX 6500 QTRAP with a Shimadzu ultrafast liquid chromatography system, negative ion mode) was again used to monitor the relevant ion pairs: succinate and [^13C4]succinate, 117/99 and 121/103, respectively; malate and [^13C4]malate, 133/115 and 137/119, respectively; and citrate and [13C6]citrate, 191/173 and 197/179, respectively. […] Hepatic PKCε translocation, gluconeogenic enzyme protein expression, ApoB (antibody from Meridian Life Science, Memphis, Tenn.), and PGC1α (antibody from Santa Cruz Biotechnology, Dallas, Tex.) protein expression were assessed by western blot. Expression of each of these proteins was normalized to GAPDH.

[4] = tested on: HPA axis, WAT lipolysis, endogenous glucose production; assay: Leptin dose-response in streptozotocin-induced type 1 diabetic rats; format: in vivo, rat; conditions: T1D rats
Text: Male Sprague-Dawley rats were ordered from Charles River Laboratories (Wilmington, Mass.) at ˜250 g and were group housed (3 per cage) for 1-2 weeks until they underwent surgery under general isoflurane anesthesia for placement of polyethylene catheters in the common carotid artery (PE50 tubing, Instech Solomon, Plymouth Meeting, Pa.), and the jugular vein (PE90 tubing, Instech), and/or the portal vein (PE50 tubing, Instech), after which they were singly housed until sacrifice. Unless otherwise specified, rats were fed a regular chow diet (Harlan Teklad #2018, Indianapolis, Ind.) throughout, and fasted as described below. […] In order to induce T1D, rats were injected with streptozotocin (65 mg/kg IP, Sigma Aldrich, St. Louis, Mo.) 24 hr prior to the start of a leptin infusion study and were fasted overnight 12 hr after streptozotocin injection.
In order to examine the physiologic impact of varying doses of leptin on glucose, hormones, and lipolysis, rats were infused with stepwise increasing doses of leptin during a continuous infusion of [1,2,3,4,5,6,6-^2H7]glucose, [U-^13C16]palmitate, [1,1,2,3,3-^2H5] glycerol, and [U-^13C4] β-hydroxybutyrate starting at hour 42 of a 48 hr fast. From 42-43.5 hr of the fast rats were infused with tracer only, from hours 43.5-45 they were infused with 20 pmol/(kg-min) leptin, from hours 45-46.5 they were infused with 60 pmol/(kg-min) leptin, and from 46.5-48 hr the infusion rate was 600 pmol/(kg-min). Blood samples were taken at 43.5, 45, 46.5, and 48 hr for measurement of substrate/hormone concentrations and turnover of each tracer, as described below. In the T1D leptin dose response studies, overnight (12 hr) fasted rats were infused with stepwise increasing dose of leptin during the same tracer infusion as described above. From 12-14 hr of the fast rats were infused with tracer only, from 14-16 hr they were infused with 50 pmol/(kg-min) leptin, and from hours 16-18 they were infused with 600 pmol/(kg-min) leptin. Blood samples were taken at 14, 16, and 18 hr of the fast for measurement of substrate/hormone concentrations and turnover of each tracer, as described below.

[5] = supraphysiologic leptin treatment
[6] = supraphysiologic leptin (˜1300 pM)

CNC[C@H](O)c1ccc(O)c(O)c1 [Epinephrine, epinephrine]
VPDH/VCS (%) [1]: 4.3 ± 1.0% | VPK+ME/VPC+PDH (%) [1]: 5.4 ± 0.1% | VPC/VEGP (%) [1]: 67 ± 2%

O=C(O)C(O)C(=O)O [ME inhibitor, hydroxymalonate]
VPDH/VCS (%) [1]: 2.0 ± 1.1% | VPK+ME/VPC+PDH (%) [1]: 7.9 ± 2.1% | VPC/VEGP (%) [1]: 50 ± 2% | basal or glucagon-stimulated glucose production or VPC [2]: no impact

[13CH3]C(O)C(=O)O (stereo not shown) [[3-^13C]lactate]
plasma lactate enrichment ([1]; rats infused with 40 μmol/(kg-min)): ~45%

leptin: leptin hormone infused at stepwise increasing doses
plasma FGF-21 concentrations ([3]; 48-hr fasted rats): dose-dependent reduction | plasma growth hormone concentrations ([3]; 48-hr fasted rats): no difference | plasma corticosterone ([3]; all three infusion rates): suppressed | plasma insulin concentrations ([3]; highest dose): increased | increase in plasma epinephrine and norepinephrine concentrations ([3]; highest infusion rate): 2- to 3 fold | fatty acid and glycerol turnover ([3]; physiologic leptin replacement): suppressed | plasma NEFA, glycerol, β-hydroxybutyrate, and lactate concentrations ([3]; physiologic leptin replacement): suppression | hepatic glucose production ([3]; plasma leptin ˜60 pM): lowered | plasma glucose concentrations ([3]; plasma leptin ˜60 pM): lowered | plasma glucose concentrations and hepatic glucose production ([3]; plasma leptin ˜150 pM and ˜1250 pM): unable to lower | plasma NEFA, glycerol, β-hydroxybutyrate, and lactate concentrations ([3]; supraphysiologic leptin infusions): increases | fatty acid and glycerol turnover [3, 5]: increased | hepatic acetyl-CoA content and β-hydroxybutyrate turnover [3, 5]: increases | HPA axis activity ([4]; both doses): suppressed | WAT lipolysis ([4]; leptin ˜60 pM): suppression | suppression of WAT lipolysis ([4]; leptin ˜1300 pM): abrogated | plasma glucose concentrations and endogenous glucose production rates ([4]; physiologic leptin replacement (˜60 pM)): marked reduction | growth hormone concentrations ([4]; supraphysiologic leptin): without any change | increase in plasma catecholamine concentrations [4, 6]: 4 fold | plasma glucose concentrations and endogenous glucose production [4, 6]: increases
